Laboratory results: patent US8956999B2, “Herbicides” (Syngenta Limited, priority 2007, dated 2015)

Experiments:
Type in all cases: in vivo
Avena fatua (AVEFA) [1] = experiment: Example B pre-emergence herbicidal test, glasshouse; details: 312 h, rate 250 g/ha, evaluated after 13 days, 100=total damage to plant, 0=no damage to plant
Description: (§1) Seeds of a variety of test species were sown in standard soil in pots. After cultivation for one day (pre-emergence) or after 8 days cultivation (post-emergence) under controlled conditions in a glasshouse (at 24/16° C., day/night; 14 hours light; 65% humidity), the plants were sprayed with an aqueous spray solution derived from the formulation of the technical active ingredient in acetone/water (50:50) solution containing 0.5% Tween 20 (polyoxyethelyene sorbitan monolaurate, CAS RN 9005-64-5). The test plants were then grown in a glasshouse under controlled conditions in a glasshouse (at 24/16° C., day/night; 14 hours light; 65% humidity) and watered twice daily. After 13 days for pre and post-emergence, the test was evaluated (100=total damage to plant; 0=no damage to plant). Test Plants: Alopecurus myosuroides (ALOMY), Avena fatua (AVEFA), Setaria faberi (SETFA), Echinochloa crus-galli (ECHCG), Solanum nigrum (SOLNI) and Amaranthus retoflexus (AMARE)

Setaria faberi (SETFA) [2] = experiment: as above; details: Setaria faberi, 312 h, rate 250 g/ha, evaluated after 13 days, 100=total damage to plant, 0=no damage to plant, read-out: Pre-Emergence Activity SEFTA
Description: as §1

[3] = test system: Alopecurus myosuroides (ALOMY); experiment: as above; details: 312 h, rate 250 g/ha, evaluated after 13 days, 100=total damage to plant, 0=no damage to plant
Description: as §1

[4] = test system: Amaranthus retoflexus (AMARE); experiment: as above; details: Amaranthus retroflexus, 312 h, rate 250 g/ha, evaluated after 13 days, 100=total damage to plant, 0=no damage to plant
Description: as §1

[5] = test system: Echinochloa crus-galli (ECHCG); experiment: as above; details: Echinochloa crus-galli, 312 h, rate 250 g/ha, evaluated after 13 days, 100=total damage to plant, 0=no damage to plant, read-out: Pre-Emergence Activity ECHGG
Description: as §1

Avena fatua (AVEFA) [6] = experiment: Example B post-emergence herbicidal test, glasshouse; details: 312 h, rate 250 g/ha, evaluated after 13 days, read-out: Post-Emergence Activity AVEFA (100=total damage to plant; 0=no damage to plant)
Description: as §1

Setaria faberi (SETFA) [7] = experiment: as above; details: 312 h, rate 250 g/ha, evaluated after 13 days, read-out: Post-Emergence Activity SEFTA (100=total damage to plant; 0=no damage to plant)
Description: as §1

[8] = test system: Alopecurus myosuroides (ALOMY); experiment: as above; details: 312 h, rate 250 g/ha, evaluated after 13 days, read-out: Post-Emergence Activity ALOMY (100=total damage to plant; 0=no damage to plant)
Description: as §1

[9] = test system: Amaranthus retoflexus (AMARE); experiment: as above; details: Amaranthus retroflexus, 312 h, rate 250 g/ha, evaluated after 13 days, read-out: Post-Emergence Activity AMARE (100=total damage to plant; 0=no damage to plant)
Description: as §1

[10] = test system: Echinochloa crus-galli (ECHCG); experiment: as above; details: 312 h, rate 250 g/ha, evaluated after 13 days, read-out: Post-Emergence Activity ECHGG (100=total damage to plant; 0=no damage to plant)
Description: as §1

Row | Compound | pest or weed control at 250 g/ha (Avena fatua (AVEFA) [1]) [%] | pest or weed control at 250 g/ha (Setaria faberi (SETFA) [2]) [%] | pest or weed control at 250 g/ha [3] [%] | pest or weed control at 250 g/ha [4] [%] | pest or weed control at 250 g/ha [5] [%] | pest or weed control at 250 g/ha (Avena fatua (AVEFA) [6]) [%] | pest or weed control at 250 g/ha (Setaria faberi (SETFA) [7]) [%] | pest or weed control at 250 g/ha [8] [%] | pest or weed control at 250 g/ha [9] [%] | pest or weed control at 250 g/ha [10] [%]
1 | CCc1sc(-c2ccc(Cl)c(F)c2)nc1C1C(=O)C(C)(C)OC(C)(C)C1=O [Compound T48] | 60 | 70 | 30 | 0 | 50 | 100 | 100 | 100 | 0 | 100
2 | Cc1sc(-c2ccc(Cl)c(Cl)c2)nc1C1C(=O)C(C)(C)C(=O)C(C)(C)C1=O [Compound T43] | 0 | 0 | 0 | 0 | 0 | 0 | 0 | 0 | 0 | 30
3 | CCc1sc(-c2ccc(Cl)cc2C)nc1C1C(=O)C(C)(C)OC(C)(C)C1=O [Compound T61] | 0 | 100 | 80 | 0 | 100 | 70 | 90 | 90 | 0 | 100
4 | Cc1sc(-c2ccc(Cl)cc2Cl)nc1C1C(=O)C(C)(C)C(=O)C(C)(C)C1=O [Compound T45] |  |  |  |  |  | 0 | 70 | 30 | 0 | 70
5 | Cc1sc(-c2ccc(Cl)cc2F)nc1C1C(=O)C(C)(C)OC(C)(C)C1=O [Compound T21] | 0 | 100 | 60 | 0 | 100 | 90 | 100 | 100 | 0 | 100
6 | Cc1nc(-c2ccc(Cl)cc2)sc1C1C(=O)C(C)(C)OC(C)(C)C1=O [Compound T66] |  |  |  |  |  | 40 | 80 | 70 | 0 | 90
7 | Cc1sc(-c2ccc(Cl)c(F)c2)nc1C1C(=O)C(C)(C)OC(C)(C)C1=O [Compound T22] | 20 | 100 | 70 | 0 | 90 | 90 | 100 | 100 | 0 | 100
8 | CCc1sc(-c2c(C)cc(Cl)cc2F)nc1C1C(=O)C(C)(C)OC(C)(C)C1=O [Compound T64] | 0 | 100 | 0 | 0 | 70 | 60 | 100 | 20 | 0 | 100
9 | CCc1sc(-c2ccc(Br)cc2C)nc1C1C(=O)C(C)(C)OC(C)(C)C1=O [Compound T57] | 30 | 90 | 20 | 0 | 50 | 90 | 100 | 100 | 0 | 100
10 | Cc1sc(-c2ccc(Br)cn2)nc1C1C(=O)C(C)(C)OC(C)(C)C1=O [Compound T56] | 0 | 20 | 0 | 0 | 10 | 20 | 90 | 30 | 0 | 80
